This is an account of results in paper PMC9822041 (Molecules, 2022).

“And” between values parts separate entries of the source, which are not always exact repeats. Equal entries are not always repeated. Where two headings read alike, the source gives them in different places. Some results are limits rather than exact numbers.

The term IC50 denotes the point on the concentration scale where inhibition reaches its midpoint. A word on the melting point: it is the temperature of the solid-liquid transition. For orientation: EC50 means the concentration giving half of the maximal effect. Higher therefore signals a less potent agent. The term Papp denotes a coefficient for how fast a substance crosses the barrier. As a reminder, the solubility is how much of the substance goes into solution per volume.

The target in one data set is hDYRK1A (Homo sapiens, UniProt Q13627). As to the kind of experiment: DYRK1A Human CMGC Kinase Enzymatic Radiometric Assay [Km ATP]. The format is biochemical.
A further data set addresses hCLK1 (Homo sapiens, UniProt P49759). In words: CLK1 Human CMGC Kinase Enzymatic Radiometric Assay [Km ATP]. The format is biochemical.
For another data set, the system named is DYRK1A. Conditions: cited from earlier work.
A further data set concerns CLK1. More on the design: method as in PMID 20981014, PMID 15010457. Conditions: cited from earlier work.
Data set [1] is described as follows: In vitro stability/oxidation of 1p to 2p in PBS, NAD+, H2O2 and riboflavin solutions (HPLC-UV). The format is physicochemical. Conditions: 25 μM 1p.
A short description of data set [2]: In vitro DPPH radical scavenging assay. To be noted: methanol, 37 °C, 40 min, absorbance at 517 nm. Here is the method:
Finally, the aptitude of 1p to act as a free radical scavenger was assessed using the rapid, inexpensive and widely used DPPH^• (2,2-diphenyl-1-picrylhydrazyl) scavenging method. Dark purple DPPH^• is a stable free radical that can accept an electron or hydrogen to become a stable diamagnetic molecule with the loss of violet color. […] Thus, this novel class of hDYRK1A/hCLK1 inhibitors are all the more interesting that they may also potentially display an additional antioxidant activity to combat oxidative stress in AD.
Figure 1. In vitro stability of 1p in various non-oxidazing and oxidazing media.
III – In vitro DPPH radical scavenging assay
DPPH radical scavenging activity was determined according to the method described by Blois.5 0.5 mL of 0.1 mM DPPH radical solution in methanol was mixed with 1.5 mL of various concentrations in methanol of 1p. The mixture was then thoroughly vortexed for 5s and each antioxidant-DPPH radical reaction mixture is kept in the test tubes in the dark at 37 °C for 40 min (time point by which all reactions should have reached steady state) and transferred to a cuvette for absorbance measurement at 517 nm. For the baseline control, 1.5 mL of methanol was used. […] Percentage of inhibition was calculated using the equation [(A0−A1)/A0] × 100 where A0 was the absorbance of the control and A1 was the absorbance in the presence of the compound. […]

A short description of the next data set: in vitro. To be noted: PAMPA, pH 7.4.
Data set [3] in a line: Solubility of 1p in PBS (HPLC). The format is physicochemical. Conditions: aqueous buffer, kinetic from dmso stock; PBS pH 7.4, 24 h at 20 °C; read-out: Experimental solubility in PBS.
Setting [4] is: radiometric assay, Km ATP, read-out: IC50 hDYRK1A.
[5] abbreviates: radiometric assay, Km ATP, read-out: IC50 hCLK1.
Where [6] appears, read: quinolinium salt and quinoline intermediates, read-out: IC50 hDYRK1A (synthetic intermediates).
The mark [7] stands for this setting: quinolinium salt and quinoline intermediates, read-out: IC50 hCLK1 (synthetic intermediates).
Where [8] appears, read: compared with N-methyl dihydroquinoline 1h.

Chain of hCLK1 (P49759 whole entry): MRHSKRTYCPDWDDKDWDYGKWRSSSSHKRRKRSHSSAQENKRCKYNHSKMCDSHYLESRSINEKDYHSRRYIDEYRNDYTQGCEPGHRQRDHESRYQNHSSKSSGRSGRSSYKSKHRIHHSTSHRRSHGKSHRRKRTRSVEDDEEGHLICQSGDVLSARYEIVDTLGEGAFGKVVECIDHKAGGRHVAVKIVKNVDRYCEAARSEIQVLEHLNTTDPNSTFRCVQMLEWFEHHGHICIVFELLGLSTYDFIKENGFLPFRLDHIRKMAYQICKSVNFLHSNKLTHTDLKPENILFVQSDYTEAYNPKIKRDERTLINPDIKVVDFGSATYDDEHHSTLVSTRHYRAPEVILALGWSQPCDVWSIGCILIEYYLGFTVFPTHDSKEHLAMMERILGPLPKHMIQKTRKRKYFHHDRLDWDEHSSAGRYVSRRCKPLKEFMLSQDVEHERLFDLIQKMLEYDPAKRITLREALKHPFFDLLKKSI

For `CC(=O)C1=CN(C)c2cc3c(cc2C1)OCO3` [Compound 1g, 1-(5-Methyl-5,8-dihydro-[1,3]dioxolo[4,5-g]quinolin-7-yl)ethanone], the melting point lay within 152 to 153 °C. In addition, the IC50 at hDYRK1A (setting [4]) was above 10 µM. In addition, the IC50 on hCLK1 (setting [5]) is above 10 µM.

The molecule `CCOC(=O)C1=CN(C)c2cc(OC)ccc2C1` [Compound 1k, Ethyl 7-methoxy-1-methyl-1,4-dihydroquinoline-3-carboxylate] came in with a melting point of 93 to 94 °C. For the same molecule, at hDYRK1A (setting [4]), the IC50 was above 10 µM. Besides, the IC50 at hCLK1 (setting [5]) turned out to be 3.16 ± 0.525 µM.

In the case of `CC(=O)C1=CN(C)c2cc(Br)ccc2C1` [Compound 1d, 1-(7-Bromo-1-methyl-1,4-dihydroquinolin-3-yl)ethanone], the melting point was 179 to 180 °C. For the same molecule, on hDYRK1A (setting [4]), the IC50 was above 10 µM. Further, the IC50 at hCLK1 (setting [5]) is above 10 µM.

`COc1ccc2c(c1)N(C)C=C(C(C)=O)C2` [Compound 1h, 1-(7-Methoxy-1-methyl-1,4-dihydroquinolin-3-yl)ethanone]: the melting point was in the range of 99 to 100 °C. For the same molecule, at hDYRK1A (setting [4]), the IC50 was 0.385 ± 0.13 µM. Besides, on hCLK1 (setting [5]), the IC50 amounted to 0.377 ± 0.158 µM.

The molecule `CC(=O)C1=CN(C)c2ccc(Cl)cc2C1` [Compound 1e, 1-(6-Chloro-1-methyl-1,4-dihydroquinolin-3-yl)ethanone] gave a melting point of 124 to 125 °C. For the same molecule, the half-inhibitory concentration (IC50) at hDYRK1A (setting [4]) was above 10 µM. Also, the IC50 at hCLK1 (setting [5]) was above 10 µM.

Consider `CCC[n+]1cc(C(C)=O)cc2ccc(OC)cc21.[Br-]`, for which the melting point lay in the range of 183 to 184 °C.

`COc1ccc2cc(C(C)=O)cnc2c1` [Compound 6h, 3-Acetyl-7-methoxyquinoline] came in with a melting point of 129 to 130 °C. For the same molecule, the IC50 on hDYRK1A (setting [6]) was above 10 µM. For the same molecule, the IC50 at hCLK1 (setting [7]) is above 10 µM.

`COc1ccc2c(c1)N(C)C=C(C(=O)N(C)C)C2` [Compound 1l, 7-Methoxy-N,N,1-trimethyl-1,4-dihydroquinoline-3-carboxamide] had a melting point of 219 to 220 °C. For the same molecule, on hDYRK1A (setting [4]), the IC50 is above 10 µM. In addition, the IC50 on hCLK1 (setting [5]) is above 10 µM.

Regarding `COc1ccc2c(c1)N(CCc1ccccc1)C=C(C(C)=O)C2` [Compound 1o, 1-(7-Methoxy-1-phenethyl-1,4-dihydroquinolin-3-yl)ethanone], the melting point lay within 92 to 93 °C. For the same molecule, at hDYRK1A (setting [4]), the half-maximal inhibitory concentration (IC50) worked out at 1.11 ± 0.203 µM. The IC50 at hCLK1 (setting [5]) worked out at 0.122 ± 0.012 µM.

The molecule `COc1cc2c(cc1OC)N(C)C=C(C(C)=O)C2` [Compound 1f, 1-(6,7-Dimethoxy-1-methyl-1,4-dihydroquinolin-3-yl)ethanone] yielded a melting point of 235 to 236 °C. At hDYRK1A (setting [4]), the IC50 was above 10 µM. The half-inhibitory concentration (IC50) on hCLK1 (setting [5]) is above 10 µM.

As for `COc1ccc2c(c1)N(C)C=C(C(=O)N(C)OC)C2` [Compound 1m, N,7-Dimethoxy-N,1-dimethyl-1,4-dihydroquinoline-3-carboxamide], the IC50 at hDYRK1A (setting [4]) and at hCLK1 (setting [5]) was above 10 µM in each case.

Regarding `CCN1/C(=C/C(C)=O)Sc2ccc(OC(C)=O)cc21` [ProINDY], the DYRK1A % inhibition in the data set on DYRK1A (at 10 μM) is listed as 26.1%.

Consider `COc1ccc2c(c1)N(C)C=C(C#N)C2` [Compound 1i, 7-Methoxy-1-methyl-1,4-dihydroquinoline-3-carbonitrile], for which the melting point was 127 to 128 °C. Moreover, on hDYRK1A (setting [4]), the IC50 is above 10 µM. Besides, at hCLK1 (setting [5]), the IC50 is above 10 µM.

`COC(=O)C1=CN(C)c2cc(OC)ccc2C1` [Compound 1j, Methyl 7-methoxy-1-methyl-1,4-dihydroquinoline-3-carboxylate]: the melting point was 95 to 96 °C. At hDYRK1A (setting [4]), the IC50 is above 10 µM. Besides, on hCLK1 (setting [5]), the IC50 came to 1.46 ± 0.253 µM.

For `CCN1/C(=C/C(C)=O)Sc2ccc(O)cc21` [INDY, (Z)-1-(3-Ethyl-5-hydroxy-2(3H)-benzothiazolylidene)-2-propanone], the CLK1 % inhibition in the data set with CLK1 (at 10 μM) is given as 99%.

On to `CCCN1C=C(C(C)=O)Cc2ccc(OC)cc21` [Compound 1p, 1-(7-Methoxy-1-propyl-1,4-dihydroquinolin-3-yl)ethanone], for which the melting point was in the range of 98 to 99 °C. Also, the “% formed 2p after incubation at 37 °C” value in data set [1] (0.1% H2O2 in PBS, after 3.5 h) is reported as 13%. Besides, in data set [1] (0.1% H2O2 in PBS, after 24 h), the “% formed 2p after incubation at 37 °C” value was 53%. Besides, the “% formed 2p after incubation at 37 °C” value in data set [1] (0.1% riboflavin in PBS, after 3.5 h (in less than 3.5 h)) came to 100%. The “% formed 2p after incubation at 37 °C” value in data set [1] (0.2% NAD+ in PBS, after 3.5 h) is 5%. The “% formed 2p after incubation at 37 °C” value in data set [1] (0.2% NAD+ in PBS, after 24 h) stood at 16%. Further, the “% formed 2p after incubation at 37 °C” value in data set [1] (2% NAD+ in PBS, after 3.5 h) is on record as 24%. The “% formed 2p after incubation at 37 °C” value in data set [1] (2% NAD+ in PBS, after 24 h) amounted to 77%. In data set [1] (PBS pH 7.4, after 3.5 h), the “% formed 2p after incubation at 37 °C” value is given as 3%. Moreover, in [1] (PBS pH 7.4, after 24 h), the “% formed 2p after incubation at 37 °C” value is recorded as 8%. For the same molecule, on hDYRK1A (setting [8]), the “fold more potent than 1h toward hDYRK1A” value came out at 2.5 fold. For the same molecule, the IC50 at hDYRK1A (setting [4]) came out at 0.153 ± 0.044 µM. The molecule further gave an EC50 in data set [2] of 128 µM. In the data set “in vitro”, this molecule registered a Papp at 4 h, 100 µM of 20 ± 0.9 ×10⁻⁶ cm/s. The “fold more potent than 1h toward hCLK1” value at hCLK1 (setting [8]) is on record as 8 fold. For the same molecule, the IC50 at hCLK1 (setting [5]) stood at 0.047 ± 0.013 µM. Moreover, the solubility at 24 h in [3] is 600 µM and 147 µg/mL.

In turn, `CC(=O)C1=CN(C)c2cc(N(C)C)ccc2C1` [Compound 1c, 1-(7-(Dimethylamino)-1-methyl-1,4-dihydroquinolin-3-yl)ethanone] had a melting point of 126 to 127 °C. Further, the IC50 at hDYRK1A (setting [4]) is above 10 µM. The IC50 at hCLK1 (setting [5]) is above 10 µM.

In turn, `COc1ccc2cc(C(C)=O)c[n+](C)c2c1.[I-]` [Compound 2h, 3-Acetyl-7-methoxy-1-methylquinolin-1-ium iodide] gave a melting point of 223 to 224 °C. In addition, at hDYRK1A (setting [6]), the IC50 was above 10 µM. Further, the IC50 at hCLK1 (setting [7]) is above 10 µM.

`COc1ccc2c(c1)N(Cc1ccccc1)C=C(C(C)=O)C2` [Compound 1n, 1-(1-Benzyl-7-methoxy-1,4-dihydroquinolin-3-yl)ethanone] had a melting point of 129 to 130 °C. On hDYRK1A (setting [4]), the IC50 turned out to be 3.02 ± 0.15 µM. Further, the IC50 on hCLK1 (setting [5]) worked out at 0.595 ± 0.063 µM.

For the molecule `CC(=O)C1=CN(C)c2ccccc2C1` [Compound 1a, 1-(1-Methyl-1,4-dihydroquinolin-3-yl)ethanone], the half-inhibitory concentration (IC50) on hDYRK1A (setting [4]) and at hCLK1 (setting [5]) was above 10 µM each time.

As for `CC(=O)C1=CN(C)c2cc(C(F)(F)F)ccc2C1` [Compound 1b, 1-(1-Methyl-7-(trifluoromethyl)-1,4-dihydroquinolin-3-yl)ethanone], the melting point lay within 141 to 142 °C. On hDYRK1A (setting [4]), the half-inhibitory concentration (IC50) is above 10 µM. For the same molecule, the IC50 on hCLK1 (setting [5]) was above 10 µM.

Turning to `CCN1/C(=C/C(C)=O)Sc2ccc(OC)cc21` [TG003], the IC50 in the data set on CLK1 was […]; with DYRK1A, […].
